Legend:
Assay type in all cases: in vivo
[1] = system: barnyardgrass (Echinochloa crus-galli); test: Test A preemergence soil spray, visual injury rating 0-100; settings: 10 days
Procedure, shortened: (§1)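 Plants were grown in a loam soil-sand blend and treated with test chemical in a non-phytotoxic solvent mixture containing surfactant, either sprayed on soil preemergence or applied postemergence to 2-10 cm plants. After 10 days in a greenhouse, injury was scored visually against untreated controls, 0 meaning no effect and 100 complete control.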

[2] = system: blackgrass (Alopecurus myosuroides); test: as above; settings: 10 days
Procedure, shortened: as §1

[3] = system: corn (Zea mays); test: as above; settings: 10 days
Procedure, shortened: as §1

[4] = system: green foxtail (Setaria viridis); test: as above; settings: 10 days
Procedure, shortened: as §1

[5] = system: kochia (Bassia scoparia); test: as above; settings: 10 days
Procedure, shortened: as §1

[6] = system: oat, wild (wild oat, Avena fatua); test: as above; settings: 10 days
Procedure, shortened: as §1

[7] = system: ragweed (common ragweed, Ambrosia artemisiifolia); test: as above; settings: 10 days
Procedure, shortened: as §1

[8] = system: ryegrass, Italian (italian ryegrass, Lolium multiflorum); test: as above; settings: 10 days
Procedure, shortened: as §1

[9] = system: soybean (Glycine max); test: as above; settings: 10 days
Procedure, shortened: as §1

[10] = system: wheat (Triticum aestivum); test: as above; settings: 10 days
Procedure, shortened: as §1

[11] = system: barnyardgrass (Echinochloa crus-galli); test: Test A postemergence application, visual injury rating 0-100
Procedure, shortened: as §1

[12] = system: blackgrass (Alopecurus myosuroides); test: as above
Procedure, shortened: as §1

[13] = system: corn (Zea mays); test: as above
Procedure, shortened: as §1

[14] = system: galium (catchweed bedstraw, Galium aparine); test: as above
Procedure, shortened: as §1

[15] = system: green foxtail (Setaria viridis); test: as above
Procedure, shortened: as §1

[16] = system: horseweed (Erigeron canadensis); test: as above
Procedure, shortened: as §1

[17] = system: kochia (Bassia scoparia); test: as above
Procedure, shortened: as §1

[18] = system: oat, wild (wild oat, Avena fatua); test: as above
Procedure, shortened: as §1

[19] = system: palmer (palmer amaranth, palmer pigweed, Amaranthus palmeri); test: as above
Procedure, shortened: as §1

[20] = system: ragweed (common ragweed, Ambrosia artemisiifolia); test: as above
Procedure, shortened: as §1

[21] = system: ryegrass, Italian (italian ryegrass, Lolium multiflorum); test: as above
Procedure, shortened: as §1

[22] = system: soybean (Glycine max); test: as above
Procedure, shortened: as §1

[23] = system: wheat (Triticum aestivum); test: as above
Procedure, shortened: as §1

[24] = system: barnyardgrass (Echinochloa crusgalli); test: Test B flooded paddy test, visual plant response rating 0-100; settings: 250 g ai/ha, Flood, applied to paddy water, evaluated after 13 days
Procedure, shortened: (§2)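 Each species was raised to two leaves before flooding to a 3 cm depth and dosing the water with compound. Injury was assessed by eye after 13 days under greenhouse conditions.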

[25] = system: ducksalad (Heteranthera limosa); test: as above; settings: 250 g ai/ha, Flood, applied to paddy water, evaluated after 13 days
Procedure, shortened: as §2

[26] = system: rice (Oryza sativa); test: as above; settings: 250 g ai/ha, Flood, applied to paddy water, evaluated after 13 days
Procedure, shortened: as §2

[27] = system: sedge, umbrella (small-flower umbrella sedge, Cyperus difformis); test: as above; settings: 250 g ai/ha, Flood, applied to paddy water, evaluated after 13 days
Procedure, shortened: as §2

[28] = 62 g ai/ha, 0 = no effect, 100 = complete control
[29] = 62 g ai/ha, postemergence, 10 days, 0 = no effect, 100 = complete control
[30] = Postemergence, 16 g ai/ha, greenhouse 10 days, 0 no effect, 100 complete control

With `CC1(C(=O)NC2CC=C(C(=O)OCC(F)(F)F)C2)CN(c2cc(F)cc(Cl)c2)C(=O)O1` (centres unmarked) [Compound 141] the “Barnyardgrass plant response rating” value ([1]; 16 g ai/ha, 0 to 100 scale) was 0, the “Barnyardgrass plant response rating (0-100)” value [1, 28] was 70 and the “Blackgrass plant response rating” value ([2]; 16 g ai/ha, 0 to 100 scale) was 0. For the same compound, the “Blackgrass plant response rating (0-100)” value [2, 28] was 80, the “Corn plant response rating” value ([3]; 16 g ai/ha, 0 to 100 scale) was 10 and the “Corn plant response rating (0-100)” value [3, 28] was 70. For the same compound, the “Foxtail, Green plant response rating” value ([4]; 16 g ai/ha, 0 to 100 scale) was 20, the “Foxtail, Green plant response rating (0-100)” value [4, 28] was 90 and the “Kochia plant response rating” value ([5]; 16 g ai/ha, 0 to 100 scale) was 0. For the same compound, the “Kochia plant response rating (0-100)” value [5, 28] was 80, the “Oat, Wild plant response rating” value ([6]; 16 g ai/ha, 0 to 100 scale) was 0 and the “Oat, Wild plant response rating (0-100)” value [6, 28] was 40. The “Ragweed plant response rating” value ([7]; 16 g ai/ha, 0 to 100 scale) was 0, the “Ragweed plant response rating (0-100)” value [7, 28] was 0 and the “Ryegrass, Italian plant response rating” value ([8]; 16 g ai/ha, 0 to 100 scale) was 50. For the same compound, the “Ryegrass, Italian plant response rating (0-100)” value [8, 28] was 90, the “Soybean plant response rating” value ([9]; 16 g ai/ha, 0 to 100 scale) was 0 and the “Soybean plant response rating (0-100)” value [9, 28] was 70. The “Wheat plant response rating” value ([10]; 16 g ai/ha, 0 to 100 scale) was 80, the “Wheat plant response rating (0-100)” value [10, 28] was 90 and the “Barnyardgrass plant response rating (0-100)” value [11, 29] was 100. The “Barnyardgrass plant response rating (0 to 100 scale)” value [11, 30] was 100, the “Blackgrass plant response rating (0-100)” value [12, 29] was 90 and the “Blackgrass plant response rating (0 to 100 scale)” value [12, 30] was 90. The “Corn plant response rating (0-100)” value [13, 29] was 100, the “Corn plant response rating (0 to 100 scale)” value [13, 30] was 100 and the “Galium plant response rating (0-100)” value [14, 29] was 80. The “Galium plant response rating (0 to 100 scale)” value [14, 30] was 80, the “Foxtail, Green plant response rating (0-100)” value [15, 29] was 90 and the “Foxtail, Green plant response rating (0 to 100 scale)” value [15, 30] was 90. The “Horseweed plant response rating (0-100)” value [16, 29] was 80, the “Horseweed plant response rating (0 to 100 scale)” value [16, 30] was 60 and the “Kochia plant response rating (0-100)” value [17, 29] was 90. For the same compound, the “Kochia plant response rating (0 to 100 scale)” value [17, 30] was 70, the “Oat, Wild plant response rating (0-100)” value [18, 29] was 80 and the “Oat, Wild plant response rating (0 to 100 scale)” value [18, 30] was 20. The “Pigweed, Palmer plant response rating (0-100)” value [19, 29] was 90, the “Pigweed, Palmer plant response rating (0 to 100 scale)” value [19, 30] was 70 and the “Ragweed plant response rating (0-100)” value [20, 29] was 60. The “Ragweed plant response rating (0 to 100 scale)” value [20, 30] was 30, the “Ryegrass, Italian plant response rating (0-100)” value [21, 29] was 80 and the “Ryegrass, Italian plant response rating (0 to 100 scale)” value [21, 30] was 20. The “Soybean plant response rating (0-100)” value [22, 29] was 70, the “Soybean plant response rating (0 to 100 scale)” value [22, 30] was 70 and the “Wheat plant response rating (0-100)” value [23, 29] was 90. The “Wheat plant response rating (0 to 100 scale)” value [23, 30] was 90, the “Plant response rating, Barnyardgrass (0 to 100 scale, 0 is no effect and 100 is complete control)” value [24] was 90 and the “Plant response rating, Ducksalad (0 to 100 scale, 0 is no effect and 100 is complete control)” value [25] was 65. For the same compound, the “Plant response rating, Rice (0 to 100 scale, 0 is no effect and 100 is complete control)” value [26] was 50 and the “Plant response rating, Sedge, Umbrella (0 to 100 scale, 0 is no effect and 100 is complete control)” value [27] was 85.
